Reference: patent US7468379B2, “Inhibition of osteolytic lesions by SRC kinase inhibitors” (The Board of Regents of the University of Texas System, priority 2005, dated 2008)

What was measured:
RAW264.7 cells [1] = experiment: RAW264.7 co-culture with MDA-MB-435 cells, osteoclastogenesis (TRAP); format: cell-based, mouse; conditions: 400 nM SKI606, 5 days
Procedure: (§1) FIGS. 4A-4B. […] (FIG. 4B) RAW264.7 cells (750 cells/well; 8 wells per treatment) were plated in 96 well plates in 10% conditioned media from MDA-MB-435 for 5 days. The cultures were fixed and stained for TRAP on day five, using a TRAP staining kit from Sigma-Aldrich (St. Louis, Mo.). Data shown is representative of five experiments.
RAW 264.7 Co-culture with MDA MB435 cells and Conditioned Media. For co-culture assays RAW264.7 (500 cells/well) were plated in 96 well plates and allowed to adhere for 12 hours. MDA-MB-435 were then introduced into the RAW264.7 culture at increasing density and incubated for 12 hours. […] Cells were then fixed, stained for TRAP and the numbers of osteoclasts were counted in each condition as described above.

BMM cells [2] = experiment: Time-dependency of osteoclast differentiation inhibition in BMM cells; format: cell-based, Black 6 mice (C57BL/6J); conditions: 300 nM SKI606 added 12, 24 or 48 hours post-RANKL stimulation, TRAP at 96 h
From the text: (§2) FIGS. 2A-2B. BMM cells respond to SKI606 in a time-dependent manner. […] M-CSF was replenished on day 3. Cells were fixed and stained for TRAP on day five, using a TRAP staining kit from Sigma-Aldrich (St. Louis, Mo.). (FIG. 2B) Data shown is representative of three experiments. Photographs are of representative fields from the different treatments using a 10× objective lens.
(§3) Primary Bone Marrow Cell Culture. Primary bone marrow cells (BMM) from the tibiae and femora were aseptically dissected from Black 6 mice (C57BU6J) 8-12 weeks of age. Bone marrow was flushed out with incomplete D-MEM and centrifuged at 1200 rpm for 3 minutes and re-suspended in 5 ml incomplete D-MEM. BMM cells were incubated in 20 ml Red Blood Cell lysis buffer (8.3 g/NH4Cl, 1 g/l sodium bicarbonate, 0.4 g/l EDTA) at room temperature for 1-2 min. 25 ml of D-MEM supplemented with 10% FBS and 100 units/ml penicillin (complete D-MEM) were added and BMM cells were centrifuged for 3 min at 1200 rpm. BMM cells were then plated at 1.5−2×10^7 cells/10 cm dish with 10 ml of complete D-MEM and cultured for 24 h. […]
Time-dependency. […] Cells were then fixed, stained for TRAP and the numbers of osteoclasts were counted in each condition as described above.

[3] = test system: Src-dependent protein tyrosine phosphorylation; experiment: Src-dependent protein tyrosine phosphorylation; conditions: concentrations comparable to the Src enzyme IC50
BMM cells [4] = experiment: In vitro RANKL-mediated osteoclast differentiation of BMM cells (TRAP staining); format: cell-based, Black 6 mice (C57BL/6J); conditions: M-CSF 10 ng/ml and RANKL 100 ng/ml, TRAP staining on day five
From the text: as §2, with “1A-1C.” for “2A-2B. BMM cells respond to SKI606 in a time-dependent manner.”, “1C)” for “2B)”, “Shown” for “Photographs”, “are photographs” for “are”
as §3
In Vitro Osteoclast Differentiation. […] At day 5, cells were fixed and assessed for osteoclast differentiation by counting the total number of TRAP-positive, multinucleated (>3 nuclei), cells per well 96 h post-treatment using Leucocyte Acid phosphatase kit from Sigma-Aldrich (St. Louis, Mo.).

BMM cells [5] = experiment: Cytotoxicity assay against BMM cells (crystal violet); format: cell-based
Procedure: (§4) Primary Bone Marrow Cell Culture. Primary bone marrow cells (BMM) from the tibiae and femora were aseptically dissected from Black 6 mice (C57BU6J) 8-12 weeks of age. Bone marrow was flushed out with incomplete D-MEM and centrifuged at 1200 rpm for 3 minutes and re-suspended in 5 ml incomplete D-MEM. BMM cells were incubated in 20 ml Red Blood Cell lysis buffer (8.3 g/NH4Cl, 1 g/l sodium bicarbonate, 0.4 g/l EDTA) at room temperature for 1-2 min. 25 ml of D-MEM supplemented with 10% FBS and 100 units/ml penicillin (complete D-MEM) were added and BMM cells were centrifuged for 3 min at 1200 rpm. BMM cells were then plated at 1.5−2×10^7 cells/10 cm dish with 10 ml of complete D-MEM and cultured for 24 h. Non-adherent cells were collected and centrifuged for 5 min at 1200 rpm and plated at a concentration of 2.5×10^4 cells/well in a 96 well dish for cytotoxicity assay, 2×10^4 cells/well in 48-well plates, or 5×10^3 cells/well in 96-well plates for osteoclast differentiation assays. Cells were cultured for 3 days in the presence of 10 ng/ml M-CSF before they were washed and used for further studies. For differentiation into osteoclasts 30-100 ng/ml RANKL is added. Media was supplemented after 2 days with fresh M-CSF and RANKL.
Cytotoxicity Assay. […] Absorbance was measured at 630 nm using an EL800 universal microplate reader from Bio-Tek Instruments Inc (Winooski, Vt.).

MDA-MB-435 cells = experiment: MDA-MB-435 Bone Tumor Mouse Model (intratibial injection); format: in vivo, Female athymic NCr nude mice; conditions: SKI606 150 mg/kg oral gavage, 9 weeks; tumor-injected tibia sections
Procedure: Mice were divided into 3 treatment groups. […] (FIG. 5A) Weight of tumor was determined as follows: weight of injected leg-weight of non-injected hind leg of the same animal. (FIG. 5B) Areas of lysis were estimated from digital X-ray images; NIH Scion program was used to measure area of tibias and lytic areas, to calculate the ratio of pixels in lytic zones/pixels in tibia area. (FIG. 5C) The tumor-injected tibia was fixed and decalcified in EDTA, and sections stained for the presence of multinucleated osteoclasts (>3 nuclei) using TRAP staining kit from Sigma-Aldrich (St. Louis, Mo.).
X-ray images were taken at 35 days after injection, and also at 14-day intervals. […]
Intrabone Injections and Processing of Bone Tissue Samples. […] After 9 weeks, final X-ray images were taken, tumor weight calculated from the difference in weight of the tumor-bearing and non tumor-bearing leg of the same animal. […] Incidence of tumor in the tibia was determined by examination of histology sections. Weight of tumor was determined as follows: weight of injected leg-weight of non-injected hind leg of the same animal. […]
Mice were divided into three treatment groups and the incidence of tumor in the tibia was determined by examination of histology sections and weight of tumor.

BMM cells [6] = experiment: Bone-resorption assay (collagen I release from OsteoAssay plates); format: cell-based, Black 6 mice (C57BL/6J); conditions: 300 nM SKI606 with M-CSF and RANKL, compared to M-CSF and RANKL treatment, day 5
Procedure: as §4, with “Cells were cultured for 3 days in the presence of 10 ng/ml M-CSF before they were washed and used for further studies. For differentiation into osteoclasts 30-100 ng/ml RANKL is added. Media was supplemented after 2 days with fresh M-CSF and RANKL.” left out
Bone-Resorption Assay. […] Bone resorption was evaluated by measuring collagen I release from the OsteoAssay plate using Cross Laps for Culture ELISA kit from Nordic Bioscience Diagnostics (Portsmouth, Va.). Absorbance was measured at 450 nm using the reading at 650 nm as reference using an EL800 universal microplate reader from Bio-Tek Instruments Inc (Winooski, Vt.).

RAW264.7 cells [7] = experiment: RAW264.7 with conditioned media from MDA-MB-435 cells, osteoclastogenesis (TRAP); format: cell-based, mouse; conditions: 10% conditioned media, 5 days
Procedure: as §1
For conditioned media the MDA-MB-435 cells were plated in 10 cm plates (1×10^6 cells/plate) and incubated for 36 hours. Media was then removed, centrifuged for 5 minutes at 2500 rpm and supernatants were isolated and placed in 4° C. until use. RAW264.7 cells (750 cells/well) were plated in 96 well plates and allowed to adhere for 12 hours. […] Cells were then fixed, stained for TRAP and the numbers of osteoclasts were counted in each condition as described above.

COc1cc(Nc2c(C#N)cnc3cc(OCCCN4CCN(C)CC4)c(OC)cc23)c(Cl)cc1Cl [SKI606, 4-((2,4-Dichloro-5-methoxyphenyl)amino)-6-methoxy-7-(3-(4-methyl-1-piperazinyl)propoxy)-3-quinolinecarbonitrile]
inhibition of MDA-MB-435-induced osteoclastogenesis in RAW264.7 cells (RAW264.7 cells [1]): significantly inhibited
sensitivity of BMM cells to compound added after initiation of osteoclastogenesis (BMM cells [2]): less sensitive
inhibition of Src-dependent protein tyrosine phosphorylation [3]: inhibits Src-dependent protein tyrosine phosphorylation at comparable concentrations
effect on RANKL-mediated osteoclast differentiation in BMM (BMM cells [4]): inhibitory effect on RANKL-mediated osteoclast differentiation in BMM in a dose dependent manner
cells died (cytotoxicity to BMM cells) (BMM cells [5]; 600 nM SKI606, 72 h): less than 10%
cytotoxicity to BMM cells (BMM cells [5]; 72 h): not cytotoxic
TRAP-positive cells counted in sections of tumors (MDA-MB-435 cells): significantly fewer
decrease in collagen I release, an indicator of bone resorption (BMM cells [6]): 3.7 fold
inhibition of osteoclastogenesis induced by conditioned media from MDA-MB-435 cells (RAW264.7 cells [7]): able to inhibit
